Measurements as given in the NIST ThermoML archive (doi:10.1016/j.jct.2012.11.017).

Assay: xn = mol fraction of the nth substance listed
Settings: Liquid, Vibrating tube method

CCCCCCCCCC [decane] + CCO
mass density [kg/m3]
Settings | x2 = 0.25 | x2 = 0.5 | x2 = 0.75
303.2 K, 100 kPa | 726.4 | 732.8 | 746.3
303.2 K, 1000 kPa | 727.2 | 733.7 | 747.2
303.2 K, 2000 kPa | 728 | 734.5 | 748.1
303.2 K, 3000 kPa | 728.8 | 735.4 | 749
303.2 K, 4000 kPa | 729.6 | 736.3 | 749.8
303.2 K, 5000 kPa | 730.4 | 737.1 | 750.7
303.2 K, 6000 kPa | 731.3 | 738 | 751.6
303.2 K, 7000 kPa | 732.1 | 738.8 | 752.4
303.2 K, 8000 kPa | 732.9 | 739.7 | 753.3
303.2 K, 9000 kPa | 733.7 | 740.5 | 754.1
303.2 K, 10000 kPa | 734.5 | 741.3 | 755
323.2 K, 100 kPa | 709.6 | 715.8 | 728.5
323.2 K, 1000 kPa | 710.3 | 716.7 | 729.5
323.2 K, 2000 kPa | 711.2 | 717.7 | 730.6
323.2 K, 3000 kPa | 712.2 | 718.6 | 731.5
323.2 K, 4000 kPa | 713.1 | 719.6 | 732.6
323.2 K, 5000 kPa | 714 | 720.5 | 733.5
323.2 K, 6000 kPa | 714.9 | 721.5 | 734.5
323.2 K, 7000 kPa | 715.8 | 722.4 | 735.4
323.2 K, 8000 kPa | 716.8 | 723.3 | 736.4
323.2 K, 9000 kPa | 717.7 | 724.2 | 737.4
323.2 K, 10000 kPa | 718.6 | 725.2 | 738.4
